According to US6399574B1 (priority 1997, dated 2002):
Where no end group is shown, it is not given here.

Columns and labels:
[1] = molecular target: NMDA receptor (spermine-stimulated [^3H]MK-801 binding)
[2] = mouse, tissue homogenate

Compound | IC50 [1] [nM] | IC50 (μM) [1] | other results
(A^7,10)1-12: Con G derivative, A at 7 and 10, residues 13-17 deleted (GEEELQANQALI; ends and bridges not checked; UniProt P07231 81-97, looked up, variant E7A E10A del13-17) | 300 |  | 
(A^7,10,14)1-14: Con G derivative, A at 7, 10, 14, residues 15-17 deleted (GEEELQANQALIRA; ends and bridges not checked; UniProt P07231 81-97, looked up, variant E7A E10A E14A del15-17) | 232 |  | 
A^7,Y^10: Con G derivative, A at position 7 and Y at position 10 (GEEELQANQYLIREKSN; ends and bridges not checked; UniProt P07231 81-97, looked up, variant E7A E10Y) | 79 |  | 
(A^7,10,14)6-17: Con G derivative, A at 7, 10, 14, residues 1-5 deleted (QANQALIRAKSN; ends and bridges not checked; UniProt P07231 81-97, looked up, variant del1-5 E7A E10A E14A) |  | inactive | 
(A^7,10,14)5-17: Con G derivative, A at 7, 10, 14, residues 1-4 deleted (LQANQALIRAKSN; ends and bridges not checked; UniProt P07231 81-97, looked up, variant del1-4 E7A E10A E14A) |  | inactive | 
(A^7,10,14)3-17: Con G derivative, A at 7, 10, 14, residues 1-2 deleted (EELQANQALIRAKSN; ends and bridges not checked; UniProt P07231 81-97, looked up, variant del1-2 E7A E10A E14A) |  | inactive | 
CC[C@H](C)[C@H](NC(=O)[C@H](CC(N)=O)NC(=O)[C@H](CCC(=O)O)NC(=O)[C@H](CCCNC(=N)N)NC(=O)[C@H](C)NC(=O)[C@H](CC(C)C)NC(=O)[C@H](CCC(=O)O)NC(=O)[C@H](C)NC(=O)[C@H](C)NC(=O)[C@H](CCSC)NC(=O)[C@H](CCCCN)NC(=O)[C@H](C)NC(=O)[C@@H](NC(=O)[C@H](CCC(=O)O)NC(=O)[C@H](CCC(=O)O)NC(=O)[C@H](CCC(=O)O)NC(=O)CN)C(C)C)C(=O)N[C@@H](C)C(=O)N[C@@H](CCCCN)C(=O)NCC(=O)N[C@H]1CSSC[C@@H](C(=O)N[C@@H](Cc2ccc(O)cc2)C(=O)N2CCC[C@H]2C(=O)O)NC(=O)[C@H](CC(N)=O)NC(=O)[C@H](C(C)C)NC(=O)[C@H](CCCCN)NC1=O [ECon R] |  |  | half-life [2]: 2.4 min
(A^7,10,14)1-16: Con G derivative, A at 7, 10, 14, residue 17 deleted (GEEELQANQALIRAKS; ends and bridges not checked; UniProt P07231 81-97, looked up, variant E7A E10A E14A del17-17) | 37 |  | 
(A^7,10,14)1-15: Con G derivative, A at 7, 10, 14, residues 16-17 deleted (GEEELQANQALIRAK; ends and bridges not checked; UniProt P07231 81-97, looked up, variant E7A E10A E14A del16-17) | 34 |  | 
(A^7,10,14)2-17: Con G derivative, A at 7, 10, 14, residue 1 deleted (EEELQANQALIRAKSN; ends and bridges not checked; UniProt P07231 81-97, looked up, variant del1-1 E7A E10A E14A) |  | inactive | 
(A^7,10,14)4-17: Con G derivative, A at 7, 10, 14, residues 1-3 deleted (ELQANQALIRAKSN; ends and bridges not checked; UniProt P07231 81-97, looked up, variant del1-3 E7A E10A E14A) |  | inactive | 
(A^7,10)1-13: Con G derivative, A at 7 and 10, residues 14-17 deleted (GEEELQANQALIR; ends and bridges not checked; UniProt P07231 81-97, looked up, variant E7A E10A del14-17) | 253 |  | 
A^7,10,14: Con G derivative, A at positions 7, 10 and 14 (GEEELQANQALIRAKSN; ends and bridges not checked; UniProt P07231 81-97, looked up, variant E7A E10A E14A) | 88 |  | 
